Data on 15 compounds can be found in patent EP3800188A1, “SUBSTITUTED PYRAZOLOPYRIMIDINES AS IRAK4 INHIBITORS” (Bayer AG, priority 2019, dated 2021).

Data set [1] can be described thus: Metabolic stability in human liver microsomes. The settings on record: 1 µM compound; for CLblood, human microsomes: hepatic in vivo blood clearance calculated with well stirred liver model, '(stable)' given beside < 0.01; for Fmax, human microsomes: maximal oral bioavailability calculated with well stirred liver model, 0.5 mg/mL protein, '(stable)' given beside 100.

The next data set addresses T1, canine Irak4 (Canis lupus familiaris, UniProt A0A8I3S726).
T1 sequence (A0A8I3S726 2-459): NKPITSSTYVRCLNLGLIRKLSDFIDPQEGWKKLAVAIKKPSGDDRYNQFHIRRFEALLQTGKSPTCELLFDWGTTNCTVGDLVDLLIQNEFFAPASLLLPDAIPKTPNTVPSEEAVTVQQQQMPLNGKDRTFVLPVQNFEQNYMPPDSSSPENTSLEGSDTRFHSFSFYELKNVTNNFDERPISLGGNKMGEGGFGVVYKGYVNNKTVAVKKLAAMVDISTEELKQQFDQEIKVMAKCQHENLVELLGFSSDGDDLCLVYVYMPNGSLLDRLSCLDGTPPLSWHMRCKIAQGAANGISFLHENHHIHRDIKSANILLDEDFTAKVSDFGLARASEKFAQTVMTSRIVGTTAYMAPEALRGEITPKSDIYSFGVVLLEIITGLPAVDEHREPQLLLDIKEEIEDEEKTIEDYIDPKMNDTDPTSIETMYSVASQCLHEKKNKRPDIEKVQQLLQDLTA
The data set is described as follows: Canine Irak4 kinase assay (TR-FRET). Format: biochemical. As to conditions: 1 mM ATP, His6-tagged canine Irak4, average or median values. A general note: In TR-FRET formats the signal depends on donor and acceptor labels being close together.

The target in another data set is T2, human IRAK4 (Homo sapiens, UniProt Q9NWZ3).
T2 construct: GST (N); made in house; host or cells: baculovirus-infected Hi5 (BTI-TN-5B1-4) insect cells
T2 sequence (Q9NWZ3 1-460): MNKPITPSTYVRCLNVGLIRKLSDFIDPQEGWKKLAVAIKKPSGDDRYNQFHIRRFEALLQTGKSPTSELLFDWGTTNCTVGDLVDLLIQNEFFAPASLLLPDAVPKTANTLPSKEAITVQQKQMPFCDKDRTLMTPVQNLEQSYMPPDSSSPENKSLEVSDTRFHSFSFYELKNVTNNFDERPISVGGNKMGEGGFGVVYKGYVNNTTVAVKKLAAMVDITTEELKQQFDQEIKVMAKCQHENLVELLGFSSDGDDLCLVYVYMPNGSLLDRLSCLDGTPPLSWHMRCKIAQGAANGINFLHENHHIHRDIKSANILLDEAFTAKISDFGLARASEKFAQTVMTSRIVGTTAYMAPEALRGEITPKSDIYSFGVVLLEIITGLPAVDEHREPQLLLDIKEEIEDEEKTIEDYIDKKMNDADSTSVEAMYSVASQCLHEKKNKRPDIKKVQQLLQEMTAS
The data set is described as follows: Human IRAK4 kinase activity inhibition assay (IRAK4 TR-FRET assay). Format: biochemical. As to conditions: 1 mM ATP, GST-human IRAK4, average or median values. In short, it runs like this: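 GST-IRAK4 from insect cells (about 0.2 nM, linear range) was preincubated 15 min with compound (11 concentrations, 20 µM–0.073 nM) in HEPES pH 7.5 with MgCl2 and DTT before kinase reaction on a biotinylated peptide. Phosphopeptide was detected by TR-FRET (Eu anti-mouse-IgG/anti-phosphoserine/streptavidin-XL665, 1 h at 22°C) as the 665/620 nm ratio, normalized to no-compound and no-enzyme controls.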

Data set [2] is described as follows: Metabolic stability in dog liver microsomes. Type of data set: in vitro ADME. As to conditions: 1 µM compound; for CLblood, dog microsomes: hepatic in vivo blood clearance calculated with well stirred liver model, '(stable)' given beside < 0.01; for Fmax, dog microsomes: maximal oral bioavailability calculated with well stirred liver model, 0.5 mg/mL protein, '(stable)' given beside 100. How it is done:
From the half-life the intrinsic clearances were calculated.

SMILES strings stand for the structures. Some results are limits rather than exact numbers.

On to `CC(C)(O)C1CCN(c2nc(NC3CCS(=O)(=O)C3)nc3c2cnn3-c2cccc(C(F)(F)F)c2)CC1` (single isomer, unassigned; (+)) [Example I-4-2, (+)-2-(1-{6-[(1,1-dioxidotetrahydrothiophen-3-yl)amino]-1-[3-(trifluoromethyl)phenyl]-1H-pyrazolo[3,4-d]pyrimidin-4-yl}piperidin-4-yl)propan-2-ol], for which, in data set [1], the “CLblood, human microsomes” value is listed as 0.14 L/h/kg and the “Fmax, human microsomes” value is on record as 89%. In addition, the IC50 (usually the concentration that inhibits the measured activity by half) against canine Irak4 was 8.54 nM. Besides, the IC50 at human IRAK4 stood at 8.27 nM.

For `O=C1C[C@H](Nc2nc(N3CC(N4CCOCC4)C3)c3cnn(-c4cccc(C(F)(F)F)c4)c3n2)CN1` [Example I-1-1, (4S)-4-({4-[3-(morpholin-4-yl)azetidin-1-yl]-1-[3-(trifluoromethyl)phenyl]-1H-pyrazolo-[3,4-d]pyrimidin-6-yl}amino)pyrrolidin-2-one], the IC50 against canine Irak4 was 3.19 nM; at human IRAK4 it was 3.04 nM.

Consider `CC(C)(O)C1CCN(c2nc(N[C@@H]3CNC(=O)C3)nc3c2cnn3-c2cccc(C(F)(F)F)c2)CC1` [Example I-2-1, (4S)-4-({4-[4-(2-hydroxypropan-2-yl)piperidin-1-yl]-1-[3-(trifluoromethyl)phenyl]-1H-pyrazolo[3,4-d]pyrimidin-6-yl}amino)pyrrolidin-2-one], for which, in data set [1], the “CLblood, human microsomes” value was 0.32 L/h/kg and the “Fmax, human microsomes” value is given as 76%. The compound also returned an IC50 against canine Irak4 of 8.7 nM. Further, the IC50 on human IRAK4 was found to be 7.19 nM.

For `O[C@H]1C[C@@H](Nc2nc(N3CC(N4CCOCC4)C3)c3cnn(-c4cccc(C(F)(F)F)c4)c3n2)C1` [Example I-72, cis-3-({4-[3-(morpholin-4-yl)azetidin-1-yl]-1-[3-(trifluoromethyl)phenyl]-1H-pyrazolo[3,4-d]pyrimidin-6-yl}amino)cyclobutanol], in data set [1], the “CLblood, human microsomes” value is reported as 0.28 L/h/kg and the “Fmax, human microsomes” value was 79%. For the same compound, half-maximal inhibition against human IRAK4 (IC50) was put at 7.31 nM. For the same compound, in data set [2], the “CLblood, dog microsomes” value is 0.10 L/h/kg and the “Fmax, dog microsomes” value was 95%.

Consider `CN1CC[C@H](Nc2nc(N3CCC(C(C)(C)O)CC3)c3cnn(-c4cccc(C(F)F)c4)c3n2)C1` [II-4, 2-[1-(1-[3-(difluoromethyl)phenyl]-6-{[(3S)-1-methylpyrrolidin-3-yl]amino}-1H-pyrazolo-[3,4-d]pyrimidin-4-yl)piperidin-4-yl]propan-2-ol], for which, in data set [1], the “CLblood, human microsomes” value was < 0.01 (stable) L/h/kg and the “Fmax, human microsomes” value was 100 (stable) %. The compound further gave an IC50 at human IRAK4 of 3.33 nM. In data set [2], the “CLblood, dog microsomes” value was < 0.01 (stable) L/h/kg and the “Fmax, dog microsomes” value is recorded as 100 (stable) %.

Regarding `CC(C)(O)C1CCN(c2nc(NC3CCS(=O)(=O)CC3)nc3c2cnn3-c2cccc(C(F)F)c2)CC1` [II-5, 2-(1-{1-[3-(difluoromethyl)phenyl]-6-[(1,1-dioxidotetrahydro-2H-thiopyran-4-yl)amino]-1H-pyrazolo[3,4-d]pyrimidin-4-yl}piperidin-4-yl)propan-2-ol], in data set [1], the “CLblood, human microsomes” value is 0.10 L/h/kg and the “Fmax, human microsomes” value is listed as 93%. Further, at human IRAK4, half-maximal inhibition (IC50) required 3.45 nM. For the same compound, in data set [2], the “CLblood, dog microsomes” value was 0.24 L/h/kg and the “Fmax, dog microsomes” value was 89%.

As for `CC(C)(O)C1CCN(c2nc(N[C@H]3CCS(=O)(=O)C3)nc3c2cnn3-c2cccc(C(F)F)c2)CC1` [II-6, 2-[1-(1-[3-(difluoromethyl)phenyl]-6-{[(3S)-1,1-dioxidotetrahydrothiophen-3-yl]amino}-1H-pyrazolo[3,4-d]pyrimidin-4-yl)piperidin-4-yl]propan-2-ol], in data set [1], the “CLblood, human microsomes” value is given as 0.19 L/h/kg and the “Fmax, human microsomes” value was 86%. At human IRAK4, this compound yielded an IC50 of 5.49 nM. Further, in data set [2], the “CLblood, dog microsomes” value is 0.46 L/h/kg and the “Fmax, dog microsomes” value is 78%.

For `CC(C)(O)C1CCN(c2nc(NC3CN(S(C)(=O)=O)C3)nc3c2cnn3-c2cccc(C(F)F)c2)CC1` [II-12, 2-[1-(1-[3-(difluoromethyl)phenyl]-6-{[1-(methylsulfonyl)azetidin-3-yl]amino}-1H-pyrazolo[3,4-d]pyrimidin-4-yl)piperidin-4-yl]propan-2-ol], in data set [1], the “CLblood, human microsomes” value is 0.25 L/h/kg and the “Fmax, human microsomes” value is given as 81%. Besides, on human IRAK4, 2.98 nM corresponded to half-maximal inhibition (IC50). Besides, in data set [2], the “CLblood, dog microsomes” value was 0.42 L/h/kg and the “Fmax, dog microsomes” value is given as 80%.

As to `O=C1CN(C2CN(c3nc(N[C@H]4C[C@H](O)C4)nc4c3cnn4-c3cccc(C(F)F)c3)C2)CCN1` [II-27, 4-(1-{1-[3-(difluoromethyl)phenyl]-6-[(trans-3-hydroxycyclobutyl)amino]-1H-pyrazolo[3,4-d]pyrimidin-4-yl}azetidin-3-yl)piperazin-2-one], in data set [1], the “CLblood, human microsomes” value is given as < 0.01 (stable) L/h/kg and the “Fmax, human microsomes” value is recorded as 100 (stable) %. In addition, it took 4.75 nM to reach half-maximal inhibition against human IRAK4 (IC50).

As for `CCS(=O)(=O)N1CC(Nc2nc(N3CCC(C(C)(C)O)CC3)c3cnn(-c4cccc(C(F)F)c4)c3n2)C1` [II-31, 2-[1-(1-[3-(difluoromethyl)phenyl]-6-{[1-(ethylsulfonyl)azetidin-3-yl]amino}-1H-pyrazolo[3,4-d]pyrimidin-4-yl)piperidin-4-yl]propan-2-ol], in data set [1], the “CLblood, human microsomes” value is listed as 0.29 L/h/kg and the “Fmax, human microsomes” value is recorded as 78%. At human IRAK4, the midpoint of inhibition, the IC50, lay at 9.22 nM.

For `CS(=O)(=O)[C@H]1C[C@H](Nc2nc(N3CC[C@@H](O)C3)c3cnn(-c4cccc(C(F)F)c4)c3n2)C1` [II-34, (3R)-1-(1-[3-(difluoromethyl)phenyl]-6-{[(1r,3R)-3-(methylsulfonyl)cyclobutyl]amino}-1H-pyrazolo[3,4-d]pyrimidin-4-yl)pyrrolidin-3-ol], in data set [1], the “CLblood, human microsomes” value is listed as 0.07 L/h/kg and the “Fmax, human microsomes” value is 95%. Besides, half-maximal inhibition against human IRAK4 (IC50) required 3.49 nM.

As to `C[C@@]1(O)CCN(c2nc(N[C@H]3C[C@H](S(C)(=O)=O)C3)nc3c2cnn3-c2cccc(C(F)F)c2)C1` [II-35, (3R)-1-(1-[3-(difluoromethyl)phenyl]-6-{[(1r,3R)-3-(methylsulfonyl)cyclobutyl]amino}-1H-pyrazolo[3,4-d]pyrimidin-4-yl)-3-methylpyrrolidin-3-ol], in data set [1], the “CLblood, human microsomes” value is recorded as 0.10 L/h/kg and the “Fmax, human microsomes” value is given as 93%. Also, the IC50 at human IRAK4 amounted to 6.8 nM.

Take `CC(C)(O)C1CCN(c2nc(N[C@H]3C[C@H](S(C)(=O)=O)C3)nc3c2cnn3-c2cccc(OC(F)F)c2)CC1` [IV-2, 2-[1-(1-[3-(difluoromethoxy)phenyl]-6-{[trans-3-(methylsulfonyl)cyclobutyl]amino}-1H-pyrazolo[3,4-d]pyrimidin-4-yl)piperidin-4-yl]propan-2-ol]: in data set [1], the “CLblood, human microsomes” value was 0.32 L/h/kg and the “Fmax, human microsomes” value was 76%. At human IRAK4, this compound returned an IC50 of 3.42 nM. Moreover, in data set [2], the “CLblood, dog microsomes” value was < 0.01 (stable) L/h/kg and the “Fmax, dog microsomes” value is reported as 100 (stable) %.

Turning to `CS(=O)(=O)N1CC(Nc2nc(N3CCC(C4(N)CC4)CC3)c3cnn(-c4cccc(OC(F)F)c4)c3n2)C1` [IV-3, 4-[4-(1-aminocyclopropyl)piperidin-1-yl]-1-[3-(difluoromethoxy)phenyl]-N-[1-(methylsulfonyl)azetidin-3-yl]-1H-pyrazolo[3,4-d]pyrimidin-6-amine], in data set [1], the “CLblood, human microsomes” value is given as 0.14 L/h/kg and the “Fmax, human microsomes” value was 89%. Moreover, the IC50 against human IRAK4 was 6.61 nM.

Regarding `CC(C)(O)CC1CN(c2nc(N[C@H]3C[C@H](S(C)(=O)=O)C3)nc3c2cnn3-c2cccc(OC(F)F)c2)C1` [IV-4, 1-[1-(1-[3-(difluoromethoxy)phenyl]-6-{[trans-3-(methylsulfonyl)cyclobutyl]amino}-1H-pyrazolo[3,4-d]pyrimidin-4-yl)azetidin-3-yl]-2-methylpropan-2-ol], in data set [1], the “CLblood, human microsomes” value is on record as 0.55 L/h/kg and the “Fmax, human microsomes” value is listed as 58%. Also, the midpoint of inhibition at human IRAK4, the IC50, lay at 4.78 nM.
